Test results as given in patent publication US11149022B2, “Antagonists of the muscarinic acetylcholine receptor M4” (Vanderbilt University, priority 2017, dated 2021).

Target: T1, Human M4 (Homo sapiens, UniProt P08173)
T1 construct: expressed in transfected cells; host or cells: CHO-K1 (ATCC), stably co-expressing chimeric G protein Gqi5
T1 sequence (P08173 1-479): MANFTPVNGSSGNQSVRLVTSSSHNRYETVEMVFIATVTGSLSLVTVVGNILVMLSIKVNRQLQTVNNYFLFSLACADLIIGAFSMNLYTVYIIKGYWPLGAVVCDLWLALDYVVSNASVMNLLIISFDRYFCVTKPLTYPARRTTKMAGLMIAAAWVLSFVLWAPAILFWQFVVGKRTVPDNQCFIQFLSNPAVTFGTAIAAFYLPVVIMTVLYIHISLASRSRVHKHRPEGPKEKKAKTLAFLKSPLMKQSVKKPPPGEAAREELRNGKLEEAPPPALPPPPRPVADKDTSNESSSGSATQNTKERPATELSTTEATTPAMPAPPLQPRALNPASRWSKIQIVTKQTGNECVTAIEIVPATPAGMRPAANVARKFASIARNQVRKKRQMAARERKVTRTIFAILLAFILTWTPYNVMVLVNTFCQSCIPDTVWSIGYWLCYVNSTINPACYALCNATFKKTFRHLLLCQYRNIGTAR
Experiment: mAChR M4 cell-based functional assay (calcium flux, antagonist mode)
Details: for remaining activity at 30 µM: % ACh maximum at 30 μM, read-out: Emin; for IC50: M4/Gqi5/CHO-K1 cells, concentration-dependent decrease of the EC80 acetylcholine response
Protocol: Human or rat M4 cDNA, along with the chimeric G protein Gqi5, were transfected into Chinese hamster ovary (CHO-K1) cells purchased from the American Type Culture Collection using Lipofectamine2000. M4/Gqi5/CHO cells were grown in Ham's F-12 medium containing 10% heat-inactivated fetal bovine serum (FBS), 20 mM HEPES, 500 μg/mL G418 sulfate, and 200 μg/mL Hygromycin B.
For high throughput measurement of agonist-evoked increases in intracellular calcium, CHO-K1 cells stably expressing muscarinic receptors were plated in growth medium lacking G418 and hygromycin at 15,000 cells/20 μL/well in Greiner 384-well black-walled, tissue culture (TC)-treated, clear-bottom plates (VWR). Cells were incubated overnight at 37° C. and 5% CO2. The next day, cells were washed using an ELX 405 (BioTek) with assay buffer; the final volume was then aspirated to 20 μL, Next, 20 μL of a 2.3 μM stock of Fluo-4/acetoxymethyl ester (Invitrogen, Carlsbad, Calif.), prepared as a 2.3 μM stock in DMSO, mixed in a 1:1 ratio with 10% (w/v) Pluronic F-127 and diluted in assay buffer, was added to the wells and the cell plates were incubated for 50 min at 37° C. and 5% CO2. Dye was removed by washing with the ELX 405 and the final volume was aspirated to […]. Compound master plates were formatted in a 10 point concentration-response curve (CRC) format (1:3 dilutions) in 100% DMSO with a starting concentration of 10 or 1 mM using a BRAVO liquid handler (Agilent). Test compound CRCs were then transferred to daughter plates (240 nL) using the Echo acoustic plate reformatter (Labcyte, Sunnyvale, Calif.) and then diluted into assay buffer (40 μL) to a 2× stock using a Thermo Fisher Combi (Thermo Fisher Scientific, Waltham, Mass.).
Calcium flux was measured using the Functional Drug Screening System (FDSS) 6000 or 7000 (Hamamatsu Corporation, Tokyo, Japan) as an increase in the fluorescent static ratio. Compounds were applied to cells (20 μL, 2×) using the automated system of the FDSS at 2 seconds into the protocol and the data were collected at 1 Hz. At 143 s, 10 μL of an EC20 concentration of the muscarinic receptor agonist acetylcholine was added (5×), followed by the addition of 12 μL of an EC80 concentration of acetylcholine at the 268 s time point (5×). Agonist activity was analyzed as a concentration-dependent increase in calcium mobilization upon compound addition. Positive allosteric modulator activity was analyzed as a concentration-dependent increase in the EC20 acetylcholine response. Antagonist activity was analyzed as a concentration-dependent decrease in the EC80 acetylcholine response; for the purposes of the tables herein, an […] (inhibitory concentration 50) was calculated as a concentration-dependent decrease of the response elicited by an EC80 concentration of acetylcholine. Concentration-response curves were generated using a four-parameter logistical equation in XLFit curve fitting software (IDBS, Bridgewater, N.J.) for Excel (Microsoft, Redmond, Wash.) or Prism (GraphPad Software, Inc., San Diego, Calif.) or the Dotmatics software platform (Dotmatics, Bishop's Stortford, UK).
Compounds were synthesized as described above. Activity (IC50 and Emin) was determined in the mAChR M4 cell-based functional assay as described above and the data are shown in Table 4.

| remaining activity at 30 µM | IC50 | SMILES |
| --- | --- | --- |
| 4.66% | 730 nM | Fc1ccc(Cl)c(-c2ccc(NCC3CC4(CCN(CC5CCOCC5)CC4)C3)nn2)c1 [Compound 44, 6-(2-chloro-5-fluoro-phenyl)-N-[[7-(tetrahydropyran-4-ylmethyl)-7-azaspiro[3.5]nonan-2-yl]methyl]pyridazin-3-amine] |
| 9.14% | 1740 nM | Cc1cccnc1CN1CCC2(CC1)CC(Nc1ccc(-c3cn(C)nc3C)nn1)C2 [Compound 7, N-[6-(1,3-dimethyipyrazol-4-yl)pyridazin-3-yl]-7-[(3-methyl-2-pyridyl)methyl]-7-azaspiro[3.5]nonan-2-amine] |
| 4.38% | 850 nM | Cc1cnn(C)c1-c1ccc(OC2CC3(CCN(CC4CCCCC4)CC3)C2)nn1 [Compound 34, 7-(cyclohexylmethyl)-2-[6-(2,4-dimethylpyrazol-3-yl)pyridazin-3-yl]oxy-7-azaspiro[3.5]nonane] |
| 3.47% | 300 nM | CC(C)(C)CCN1CCC2(CC1)CC(COc1ccc(-c3cc(F)ccc3Cl)nn1)C2 [Compound 60, 2-[[6-(2-Chloro-5-fluoro-phenyl)pyridazin-3-yl]oxymethyl]-7-(3,3-dimethylbutyl)-7-azaspiro[3.5]nonane] |
| 2.94% | 760 nM | Fc1ccc(Cl)c(-c2ccc(OC3CC4(CCN(CC5CCCCC5)CC4)C3)nn2)c1 [Compound 18, 2-[6-(2-chloro-5-fluoro-phenyl)pyridazin-3-yl]oxy-7-(cyclohexylmethyl)-7-azaspiro[3.5]nonane] |
| 4.55% | 220 nM | Cc1nn(C)cc1-c1ccc(NCC2CC3(CCN(CCC(C)(C)C)CC3)C2)nn1 [Compound 39, N-[[7-(3,3-Dimethylbutyl)-7-azaspiro[3.5]nonan-2-yl]methyl]-6-(1,3-dimethylpyrazol-4-yl)pyridazin-3-amine] |
| 6.14% | 1490 nM | Fc1ccc(Cl)c(-c2ccc(OCC3CC4(CCN(CC5CCCCC5)CC4)C3)nn2)c1 [Compound 62, 2-[[6-(2-chloro-5-fluoro-phenyl)pyridazin-3-yl]oxymethyl]-7-(cyclohexylmethyl)-7-azaspiro[3.5]nonane] |
| 6.85% | 1120 nM | Cc1cccnc1CN1CCC2(CC1)CC(Nc1ccc(-c3c(C)cnn3C)nn1)C2 [Compound 12, N-[6-(2,4-dimethylpyrazol-3-yl)pyridazin-3-yl]-7-[(3-methyl-2-pyridyl)methyl]-7-azaspiro[3.5]nonan-2-amine] |
| 10.8% | 3450 nM | Cc1cnn(C)c1-c1ccc(OC2CC3(CCN(Cc4ccccc4)CC3)C2)nn1 [Compound 37, 7-benzyl-2-[6-(2,4-dimethylpyrazol-3-yl)pyridazin-3-yl]oxy-7-azaspiro[3.5]nonane] |
| 8.66% | 2680 nM | Cc1nn(C)cc1-c1ccc(NCC2CC3(CCN(Cc4ccccc4)CC3)C2)nn1 [Compound 53, N-[(7-benzyl-7-azaspiro[3.5]nonan-2-yl)methyl]-6-(1,3-dimethylpyrazol-4-yl)pyridazin-3-amine] |
| 2.86% | 10 nM | Cc1cnn(C)c1-c1ccc(NC2CC3(CCN(CC4CC5C=CC4C5)CC3)C2)nn1 (centres unmarked) [Compound 8, 7-(5-bicyclo[2.2.1]hept-2-enylmethyl)-N-[6-(2,4-dimethylpyrazol-3-yl)pyridazin-3-yl]-7-azaspiro[3.5]nonan-2-amine] |
| 3.48% |  | Cc1nn(C)cc1-c1ccc(NC2CC3(CCN(CCC(C)(C)C)CC3)C2)nn1 [Compound 1, 7-(3,3-Dimethylbutyl)-N-[6-(1,3-dimethylpyrazol-4-yl)pyridazin-3-yl]-7-azaspiro[3.5]nonan-2-amine] |
| 2.63% | 240 nM | Fc1ccc(Cl)c(-c2ccc(NCC3CC4(CCN(CC5CC6C=CC5C6)CC4)C3)nn2)c1 (centres unmarked) [Compound 40, N-[[7-(5-bicyclo[2.2.1]hept-2-enylmethyl)-7-azaspiro[3.5]nonan-2-yl]methyl]-6-(2-chloro-5-fluoro-phenyl)pyridazin-3-amine] |
| 8.05% | 2670 nM | Cc1cccnc1CN1CCC2(CC1)CC(Oc1ccc(-c3cn(C)nc3C)nn1)C2 [Compound 31, 2-[6-(1,3-dimethylpyrazol-4-yl)pyridazin-3-yl]oxy-7-[(3-methyl-2-pyridyl)methyl]-7-azaspiro[3.5]nonane] |
| 6.27% | 1120 nM | Cc1nn(C)cc1-c1ccc(NCC2CC3(CCN(Cc4ccccc4F)CC3)C2)nn1 [Compound 54, 6-(1,3-dimethylpyrazol-4-yl)-N-[[7-[(2-fluorophenyl)methyl]-7-azaspiro[3.5]nonan-2-yl]methyl]pyridazin-3-amine] |
| 11.6% | 4430 nM | Cc1nn(C)cc1-c1ccc(OC2CC3(CCN(CC4CCOCC4)CC3)C2)nn1 [Compound 27, 2-[6-(1,3-dimethylpyrazol-4-yl)pyridazin-3-yl]oxy-7-(tetrahydropyran-4-ylmethyl)-7-azaspiro[3.5]nonane] |
| 17.1% | 5810 nM | Cc1nn(C)cc1-c1ccc(OC2CC3(CCN(CC4CCCOC4)CC3)C2)nn1 (centres unmarked) [Compound 28, 2-[6-(1,3-dimethylpyrazol-4-yl)pyridazin-3-yl]oxy-7-(tetrahydropyran-3-ylmethyl)-7-azaspiro[3.5]nonane] |
| 3.11% | 220 nM | Cc1cnn(C)c1-c1ccc(NC2CC3(CCN(CC(C)C(C)(C)C)CC3)C2)nn1 (centres unmarked) [Compound 9, N-[6-(2,4-dimethylpyrazol-3-yl)pyridazin-3-yl]-7-(2,3,3-trimethylbutyl)-7-azaspiro[3.5]nonan-2-amine] |
| 6.61% | 1310 nM | Fc1ccc(Cl)c(-c2ccc(OCC3CC4(CCN(CC5CCOCC5)CC4)C3)nn2)c1 [Compound 64, 2-[[6-(2-chloro-5-fluoro-phenyl)pyridazin-3-yl]oxymethyl]-7-(tetrahydropyran-4-ylmethyl)-7-azaspiro[3.5]nonane] |
| 37.6% | > 10000 nM | Cc1nn(C)cc1-c1ccc(NCC2CC3(CCN(CC4CCCOC4)CC3)C2)nn1 (centres unmarked) [Compound 51, 6-(1,3-dimethylpyrazol-4-yl)-N-[[7-(tetrahydropyran-3-ylmethyl)-7-azaspiro[3.5]nonan-2-yl]methyl]pyridazin-3-amine] |
| 23.1% | > 10000 nM | Cc1cnn(C)c1-c1ccc(NC2CC3(CCN(CC4CCOCC4)CC3)C2)nn1 [Compound 10, N-[6-(2,4-dimethylpyrazol-3-yl)pyridazin-3-yl]-7-(tetrahydropyran-4-ylmethyl)-7-azaspiro[3.5]nonan-2-amine] |
